Assay results: patent US12052991B2, “Substituted pyridinyloxybenzenes and salts thereof and use thereof as herbicidal agents” (Bayer Aktiengesellschaft, priority 2018, dated 2024)

Legend:
Format in all cases: in vivo
[1] = tested on: Poa annua (POAAN); assay: Herbicidal early post-emergence action (Table A3); conditions: 1900 g/ha; scored visually 9 to 12 days after treatment; 100% = plants have died, 0% = like control plants
Method: (§1) Seeds of monocotyledonous and dicotyledonous weed plants were placed in 96-well microtiter plates in quartz sand and grown in a climatized chamber under controlled growth conditions. 5 to 7 days after sowing, the test plants were treated at the cotyledon stage. The compounds according to the invention, formulated in the form of emulsion concentrates (EC), were applied with a water application rate of the equivalent of 2200 liters per hectare. After the test plants had been left to stand in the climatized chamber for 9 to 12 days under optimum growth conditions, the effect of the preparations was scored visually in comparison to untreated controls. For example, 100% activity=the plants have died, 0% activity=like control plants. Tables A1 to A8 below show the effects of selected compounds of the general formula (I) according to Table 1 on various harmful plants and an application rate corresponding to 1900 g/ha, which were obtained by the experimental procedure mentioned above.

[2] = tested on: Agrostis tenuis (AGSTE); assay: Herbicidal early post-emergence action (Table A1); conditions: 1900 g/ha; scored visually 9 to 12 days after treatment; 100% = plants have died, 0% = like control plants
Method: as §1

[3] = tested on: harmful plants AGSTE, DIPTE, LOLPE, MATCH, POAAN, SETVI, STEME and VERPE; assay: Herbicidal early post-emergence action, summary of Tables A1-A8; conditions: application rate of 1900 g of active ingredient per hectare; summary in words
Method: as §1, with “plants.” for “plants. Tables A1 to A8 below show the effects of selected compounds of the general formula (I) according to Table 1 on various harmful plants and an application rate corresponding to 1900 g/ha, which were obtained by the experimental procedure mentioned above.”
Tables A1 to A8 below show the effects of selected compounds of the general formula (I) according to Table 1 on various harmful plants and an application rate corresponding to 1900 g/ha, which were obtained by the experimental procedure mentioned above.
As the results of Tables A1-A8 show, compounds no.

[4] = tested on: harmful plants ABUTH, AMARE, ECHCG, LOLRI, MATIN, POAAN, SETVI, STEME, ALOMY, DIGSA, KCHSC and VERPE; assay: Herbicidal pre-emergence action (test C), summary of Tables C1-C12; conditions: application rate of 1280 or 320 g of active ingredient per hectare; summary in words
Summary of the method: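 Visual % damage versus untreated plants (0% = like control, 100% = died) was scored after about 3 weeks in the greenhouse. Before emergence, seeds sown in sandy loam got a soil-surface spray of compound as WP or EC plus 0.5% additive, using 600 L/ha water at rates of 1280 or 320 g/ha.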

[5] = tested on: Poa annua (POAAN); assay: Herbicidal post-emergence action (Table B3); conditions: rated visually after about 3 weeks, 100% = plants have died, 0% = like control plants
Summary of the method: (§2)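 Application rates of 1280 or 320 g/ha were tested post-emergence on one-leaf-stage greenhouse plants in sandy loam, using WP or EC formulations with 0.5% additive at 600 L/ha. Activity was rated visually against untreated plants about 3 weeks later.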

[6] = tested on: Poa annua (POAAN); assay: Herbicidal pre-emergence action, test C (Table C3); conditions: visual scoring after about 3 weeks, 100% = plants have died, 0% = like control plants
Summary of the method: (§3)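 First, weed seeds were sown in sandy loam and covered with soil. Next, aqueous WP/EC preparations plus 0.5% additive were applied to the surface at 600 L/ha (1280 or 320 g/ha). Finally, plants grew in a greenhouse ~3 weeks before visual % scoring against controls.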

[7] = tested on: Alopecurus myosuroides (ALOMY); assay: Herbicidal pre-emergence action, test C (Table C9); conditions: visual scoring after about 3 weeks, 100% = plants have died, 0% = like control plants
Summary of the method: as §3

[8] = tested on: Stellaria media (STEME); assay: Herbicidal pre-emergence action, test C (Table C8); conditions: visual scoring after about 3 weeks, 100% = plants have died, 0% = like control plants
Summary of the method: as §3

[9] = tested on: Digitaria sanguinalis (DIGSA); assay: Herbicidal pre-emergence action, test C (Table C10); conditions: dosage 1280 g/ha; visual scoring after about 3 weeks; 100% = plants have died, 0% = like control plants
Summary of the method: as §3

[10] = tested on: Abutilon theophrasti (ABUTH); assay: Herbicidal post-emergence action (Table B5); conditions: rated visually after about 3 weeks, 100% = plants have died, 0% = like control plants
Summary of the method: as §2

[11] = tested on: Echinochloa crus-galli (ECHCG); assay: Herbicidal pre-emergence action, test C (Table C1); conditions: dosage 1280 g/ha; visual scoring after about 3 weeks; 100% = plants have died, 0% = like control plants
Summary of the method: as §3

[12] = tested on: Bassia scoparia (KCHSC); assay: Herbicidal pre-emergence action, test C (Table C11); conditions: dosage 1280 g/ha, visual scoring vs untreated controls
Summary of the method: as §3

[13] = tested on: Amaranthus retroflexus (AMARE); assay: Herbicidal post-emergence action (Table B6); conditions: dosage 1280 g/ha; visual rating about 3 weeks after treatment; 100% = plants have died, 0% = like control plants
Summary of the method: as §2

[14] = tested on: Bassia scoparia (KCHSC); assay: Herbicidal post-emergence action (Table B11); conditions: dosage 1280 g/ha; visual rating about 3 weeks after treatment; 100% = plants have died, 0% = like control plants
Summary of the method: as §2

[15] = tested on: Alopecurus myosuroides (ALOMY); assay: Herbicidal post-emergence action (Table B9); conditions: rated visually after about 3 weeks, 100% = plants have died, 0% = like control plants
Summary of the method: as §2

[16] = tested on: Amaranthus retroflexus (AMARE); assay: Herbicidal pre-emergence action, test C (Table C6); conditions: visual scoring after about 3 weeks, 100% = plants have died, 0% = like control plants
Summary of the method: as §3

[17] = tested on: harmful plants ABUTH, AMARE, ECHCG, LOLRI, MATIN, POAAN, SETVI, STEME, ALOMY, DIGSA, KCHSC and VERPE; assay: Herbicidal post-emergence action, summary of Tables B1-B12; conditions: application rate of 1280 or 320 g of active ingredient per hectare; summary in words
Summary of the method: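 Activity scored by eye roughly 3 weeks post-treatment against untreated plants, from 0% (no effect) to 100% (plants dead). Application rates were 1280 or 320 g/ha, as aqueous WP/EC spray plus 0.5% additive at 600 L/ha, onto one-leaf-stage weeds grown 2–3 weeks in sandy loam.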

[18] = tested on: Echinochloa crus-galli (ECHCG); assay: Herbicidal post-emergence action (Table B1); conditions: 1280 g/ha; rated visually after about 3 weeks; 100% = plants have died, 0% = like control plants
Summary of the method: as §2

[19] = tested on: Abutilon theophrasti (ABUTH); assay: Herbicidal pre-emergence action, test C (Table C5); conditions: visual scoring after about 3 weeks, 100% = plants have died, 0% = like control plants
Summary of the method: as §3

[20] = tested on: Matricaria inodora (MATIN); assay: Herbicidal pre-emergence action, test C (Table C7); conditions: visual scoring after about 3 weeks, 100% = plants have died, 0% = like control plants
Summary of the method: as §3

[21] = tested on: Matricaria inodora (MATIN); assay: Herbicidal post-emergence action (Table B7); conditions: rated visually after about 3 weeks, 100% = plants have died, 0% = like control plants
Method: Seeds of mono- and dicotyledonous weed plants were placed in plastic pots in sandy loam soil (doubly sown with in each case one species of mono- or dicotyledonous weed plants per pot), covered with soil and cultivated in a greenhouse under controlled growth conditions. 2 to 3 weeks after sowing, the test plants were treated at the one-leaf stage. The compounds of the invention, formulated in the form of wettable powders (WP) or as emulsion concentrates (EC), were applied onto the green parts of the plants as aqueous suspension or emulsion with addition of 0.5% additive at a water application rate of 600 liters per hectare (converted). After the test plants had been kept in the greenhouse under optimum growth conditions for about 3 weeks, the activity of the preparations was rated visually in comparison to untreated controls. For example, 100% activity=the plants have died, 0% activity=like control plants. Tables B1 to B12 below show the effects of selected compounds of the general formula (I) according to Table 1 on various harmful plants and an application rate corresponding to 1280 or 320 g/ha, which were obtained by the experimental procedure mentioned above.

[22] = tested on: Stellaria media (STEME); assay: Herbicidal post-emergence action (Table B8); conditions: visual rating about 3 weeks after treatment, 100% = plants have died, 0% = like control plants
Summary of the method: as §2

[23] = tested on: Veronica persica (VERPE); assay: Herbicidal pre-emergence action, test C (Table C12); conditions: visual scoring vs untreated controls
Summary of the method: as §3

[24] = tested on: Veronica persica (VERPE); assay: Herbicidal post-emergence action (Table B12); conditions: visual rating about 3 weeks after treatment, 100% = plants have died, 0% = like control plants
Summary of the method: as §2

[25] = tested on: Setaria viridis (SETVI); assay: Herbicidal pre-emergence action, test C (Table C4); conditions: dosage 1280 g/ha; visual scoring after about 3 weeks; 100% = plants have died, 0% = like control plants
Summary of the method: as §3

SMILES: Fc1cc(Cl)cnc1Oc1ccccc1-c1ccc(C(F)(F)F)cn1 [Example 1-66]
- Early post-emergence effect against Poa annua (POAAN) [1]: 80%
- Early post-emergence effect against Agrostis tenuis (AGSTE) [2]: 100%
- herbicidal activity against the harmful plants of Tables A1-A8 in early post-emergence treatment [3]: very good herbicidal activity

SMILES: Cc1cc(F)c(-c2cc(C(F)F)on2)c(Oc2ncc(Cl)cc2F)c1 [Example 1-87]
- Early post-emergence effect against Poa annua (POAAN) [1]: 80%
- Early post-emergence effect against Agrostis tenuis (AGSTE) [2]: 80%
- herbicidal activity against the harmful plants of Tables A1-A8 in early post-emergence treatment [3]: very good herbicidal activity

SMILES: Cc1cc(C)c(-c2cc(C(F)F)no2)c(Oc2ccccn2)c1 [Example 1-86]
- herbicidal activity against the harmful plants of Tables C1-C12 in pre-emergence treatment [4]: very good herbicidal activity
- Post-emergence action against Poa annua (POAAN) ([5]; 320 g/ha): 100%
- Post-emergence action against Poa annua (POAAN) ([5]; 1280 g/ha): 100%
- Pre-emergence action against Poa annua (POAAN) ([6]; dosage 320 g/ha): 90%
- Pre-emergence action against Poa annua (POAAN) ([6]; dosage 1280 g/ha): 100%
- Pre-emergence action against Alopecurus myosuroides (ALOMY) ([7]; dosage 320 g/ha): 90%
- Pre-emergence action against Alopecurus myosuroides (ALOMY) ([7]; dosage 1280 g/ha): 90%
- Pre-emergence action against Stellaria media (STEME) ([8]; dosage 320 g/ha): 90%
- Pre-emergence action against Stellaria media (STEME) ([8]; dosage 1280 g/ha): 100%
- Pre-emergence action against Digitaria sanguinalis (DIGSA) [9]: 100%
- Post-emergence action against Abutilon theophrasti (ABUTH) ([10]; 320 g/ha): 100%
- Post-emergence action against Abutilon theophrasti (ABUTH) ([10]; 1280 g/ha): 100%
- Pre-emergence action against Echinochloa crus-galli (ECHCG) [11]: 100%
- Pre-emergence action against Bassia scoparia (KCHSC) [12]: 100%
- Post-emergence action against Amaranthus retroflexus (AMARE) [13]: 100%
- Post-emergence action against Bassia scoparia (KCHSC) [14]: 90%
- Post-emergence action against Alopecurus myosuroides (ALOMY) ([15]; 320 g/ha): 100%
- Post-emergence action against Alopecurus myosuroides (ALOMY) ([15]; 1280 g/ha): 100%
- Pre-emergence action against Amaranthus retroflexus (AMARE) ([16]; dosage 320 g/ha): 100%
- Pre-emergence action against Amaranthus retroflexus (AMARE) ([16]; dosage 1280 g/ha): 100%
- herbicidal activity against the harmful plants of Tables B1-B12 in post-emergence treatment [17]: very good herbicidal activity
- Post-emergence action against Echinochloa crus-galli (ECHCG) [18]: 100%
- Pre-emergence action against Abutilon theophrasti (ABUTH) ([19]; dosage 320 g/ha): 90%
- Pre-emergence action against Abutilon theophrasti (ABUTH) ([19]; dosage 1280 g/ha): 100%
- Pre-emergence action against Matricaria inodora (MATIN) ([20]; dosage 320 g/ha): 90%
- Pre-emergence action against Matricaria inodora (MATIN) ([20]; dosage 1280 g/ha): 100%
- Post-emergence action against Matricaria inodora (MATIN) ([21]; 320 g/ha): 100%
- Post-emergence action against Matricaria inodora (MATIN) ([21]; 1280 g/ha): 100%
- Post-emergence action against Stellaria media (STEME) ([22]; dosage 320 g/ha): 100%
- Post-emergence action against Stellaria media (STEME) ([22]; dosage 1280 g/ha): 100%
- Pre-emergence action against Veronica persica (VERPE) ([23]; dosage 320 g/ha): 90%
- Pre-emergence action against Veronica persica (VERPE) ([23]; dosage 1280 g/ha): 100%
- Post-emergence action against Veronica persica (VERPE) ([24]; dosage 320 g/ha): 100%
- Post-emergence action against Veronica persica (VERPE) ([24]; dosage 1280 g/ha): 100%
- Pre-emergence action against Setaria viridis (SETVI) [25]: 100%

SMILES: FC(F)(F)c1ccnc(-c2ccccc2Oc2ccc(Cl)cn2)c1 [Example 1-70]
- Early post-emergence effect against Poa annua (POAAN) [1]: 100%
- Early post-emergence effect against Agrostis tenuis (AGSTE) [2]: 100%
- herbicidal activity against the harmful plants of Tables A1-A8 in early post-emergence treatment [3]: very good herbicidal activity

SMILES: CSc1cccc(Oc2ccc(Cl)cn2)c1-c1cc(C(F)F)no1 [Example 1-56]
- Early post-emergence effect against Poa annua (POAAN) [1]: 100%
- Early post-emergence effect against Agrostis tenuis (AGSTE) [2]: 100%
- herbicidal activity against the harmful plants of Tables A1-A8 in early post-emergence treatment [3]: very good herbicidal activity
